Results: US20110059886A1, “HCV NS3-NS4A Protease Inhibition” (priority 2004, published 2011)
Read-outs that look alike come from different tables or passages of the source. Non-standard residues stand in square brackets, D forms with d. Residues, ends and D or L forms follow the SMILES beside them. Abu = CC[C@H](N)C(=O)O

Tests used:
[1] = target: T1, HCV NS3 protease genotype 2a (Hepatitis C virus genotype 2a, UniProt P26660, L1043K/T1046A/V1183I); assay: Kinetic parameters of NS5AB substrate, HPLC peptide cleavage assay; type: biochemical
T1 construct: DNA fragment encoding residues Ala^1-Ser^181 of several isolates of genotype 2a or 2b; hexa-histidine (C); made in house; host or cells: E. coli BL21/DE3 pLysS
Experimental: (§1) Peptide sequences are shown below.
(§2) For determination of the kinetic parameters Km and Vmax, the NS5AB substrate was varied between 3 μM and 200 μM. The ratio of the product peak area to the reaction time yielded a rate of enzyme catalyzed hydrolysis. These rate vs. substrate concentration data points were fit to the Michaelis-Menten equation using non-linear regression. The value of kcat was determined from Vmax using the nominal protease concentration and a fully cleaved substrate peptide as an instrument calibration standard.

[2] = target: T2, HCV NS3 protease genotype 3a (Hepatitis C virus genotype 3a, UniProt Q81258, I1084M/L1045K/S1134A/S1198A); assay: as above; type: biochemical
T2 construct: DNA fragment encoding residues Ala^1-Ser^181 of several isolates of genotype 2a or 2b; hexa-histidine (C); made in house; host or cells: E. coli BL21/DE3 pLysS
Experimental: as §1, §2

[3] = target: NS3-4A serine protease (Hepatitis C virus genotype 1a, UniProt P27958); assay: Enzyme assays with KK-4A peptide and FRET substrate, mode of binding
[4] = system: Cells containing hepatitis C virus (HCV) replicon; assay: HCV replicon cell assay; type: cell-based; conditions: 48 h, read-out: (concentration at which 50% inhibition of HCV RNA level is observed)
Experimental: Cells were obtained according to the method of Lohmannn et al., Science, 285, pp. 110-113 (1999). Cells containing hepatitis C virus (HCV) replicon were maintained in DMEM containing 10% fetal bovine serum (FBS), 0.25 mg per ml of G418, with appropriate supplements (media A).
On day 1, replicon cell monolayer was treated with a trypsin:EDTA mixture, removed, and then media A was diluted into a final concentration of 100,000 cells per ml wit. 10,000 cells in 100 ul were plated into each well of a 96-well tissue culture plate, and cultured overnight in a tissue culture incubator at 37° C.
On day 2, compounds (in 100% DMSO) were serially diluted into DMEM containing 2% FBS, 0.5% DMSO, with appropriate supplements (media B). The final concentration of DMSO was maintained at 0.5% throughout the dilution series. […]
A Taqman real-time RT-PCR quantification assay was set up with two sets of specific primers and probe. […] Total RNA extractants from treated HCV replicon cells was added to the PCR reactions for quantification of both HCV and BVDV RNA in the same PCR well. […] The level of HCV RNA in each well was calculated according to a standard curve run in the same PCR plate. The percentage of inhibition or decrease of HCV RNA level due to compound treatment was calculated using the DMSO or no compound control as 0% of inhibition. […]

[5] = target: T1, HCV NS3 protease genotype 2a; assay: Progress curve analysis of slow binding inhibition; type: biochemical
Text: (§5) F(t)=Vs×t+(Vi−Vs)×(1−exp (−kobs×t))/kobs+C Equation 1:
(§6) kobs=koff+(kon×[I])/(1+[S]/Km) Equation 2:

[6] = target: T1, HCV NS3 protease genotype 2a; assay: HPLC peptide cleavage assay, apparent Ki; type: biochemical; conditions: 15 min preincubation, NS5AB at Km
Text: as §1
(§3) Biophys. Acta. 874, pp. 44-53 (1986)].

[7] = target: T2, HCV NS3 protease genotype 3a; assay: HPLC peptide cleavage assay, apparent Ki; type: biochemical; conditions: 15 min preincubation, NS5AB at Km
Text: as §1, §3

[8] = target: T1, HCV NS3 protease genotype 2a; assay: Inhibition constant from steady-state rates of progress curves; type: biochemical; conditions: steady-state portion of progress curves, Morrison fit, read-out: Ki using steady-state rates
Experimental: (§4) The rates of onset of slow binding inhibition were determined by a modification of the method for measurement of progress curves described by Narjes et al. [Narjes F. et al., Biochemistry 39, pp. 1849-1861 (2000)]. […] The reaction was initiated by addition of an aliquot of pre-heated enzyme stock to the compound-substrate mixture to yield final concentrations of 6 to 12 μM RET-S1 and 0.5 nM to 4 nM HCV NS3 protease. […] T., Adv. Enzymol. Relat. Areas Mol. Biol. 61, pp. 201-301 (1988)].
as §3

[9] = target: T2, HCV NS3 protease genotype 3a; assay: as above; type: biochemical; conditions: steady-state portion of progress curves, Morrison fit, read-out: Ki using steady-state rates
Experimental: as §4, §3

[10] = target: T2, HCV NS3 protease genotype 3a; assay: Progress curve analysis of slow binding inhibition; type: biochemical
Text: as §5, §6

[11] = target: NS3/4A protease; conditions: WO 02/018369, cited from earlier work
[12] = target: T1, HCV NS3 protease genotype 2a; assay: Fluorescence peptide assay, potency with extended incubation; type: biochemical; conditions: IC50 after extended preincubation taken as Ki of tightly bound complex, read-out: Ki following extended incubation
[13] = target: T2, HCV NS3 protease genotype 3a; assay: as above; type: biochemical; conditions: IC50 after extended preincubation taken as Ki of tightly bound complex, read-out: Ki following extended incubation
[14] = system: CC[C@H](NC(=O)[C@@H](NC(=O)[C@@H](NC(=O)[C@H](CC(=O)O)NC(=O)[C@@H](N)CCC(=O)O)C(C)C)C(C)C)C(=O)N[C@@H](CS)C(=O)N[C@@H](CO)C(=O)N[C@@H](CCSC)C(=O)N[C@@H](CO)C(=O)N[C@@H](Cc1ccc(O)cc1)C(=O)O; assay: purified protein, by the assay type; conditions: other: genotype 1a; NS5AB substrate; pH 7.8; 40.0 °C
[15] = target: RET-S1 fluorescent peptide (AnaSpec, San Jose, Calif.)
[16] = target: NS5AB peptide substrate, based on the NS5A/NS5B cleavage site for genotype 1a HCV

T2 sequence (Q81258 1033-1213, looked up, stated change not applied, other chains not shown): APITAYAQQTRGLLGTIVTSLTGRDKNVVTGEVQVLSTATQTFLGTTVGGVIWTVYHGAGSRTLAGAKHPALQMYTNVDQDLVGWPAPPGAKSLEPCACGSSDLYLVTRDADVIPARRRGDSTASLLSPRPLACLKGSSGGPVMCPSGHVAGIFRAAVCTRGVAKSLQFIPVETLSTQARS
Chain of NS3-4A serine protease (P27958 1027-1208, other chains not shown): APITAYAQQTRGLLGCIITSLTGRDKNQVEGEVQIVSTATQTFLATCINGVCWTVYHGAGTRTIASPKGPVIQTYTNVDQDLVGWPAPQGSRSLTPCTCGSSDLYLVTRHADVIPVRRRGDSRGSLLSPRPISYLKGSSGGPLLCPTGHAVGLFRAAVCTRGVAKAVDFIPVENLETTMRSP

Q: With `CC[C@H](NC(=O)[C@@H](NC(=O)[C@@H](NC(=O)[C@H](CC(=O)O)NC(=O)[C@@H](N)CCC(=O)O)C(C)C)C(C)C)C(=O)N[C@@H](CS)C(=O)N[C@@H](CO)C(=O)N[C@@H](CCSC)C(=O)N[C@@H](CO)C(=O)N[C@@H](Cc1ccc(O)cc1)C(=O)O` [NS5AB, NH2-EDVV-(alpha)Abu-CSMSY-COOH] (H-EDVV[Abu]CSMSY-OH) as the molecule, how does the Km [1] read?
A: The Km was 11 µM.

Q: And the Km [2]?
A: The Km was 70 µM.

Q: Which “mode of binding to the NS3-4A serine protease” value [3] does the source give for `CCC[C@H](NC(=O)[C@@H]1[C@H]2CCC[C@H]2CN1C(=O)[C@@H](NC(=O)[C@@H](NC(=O)c1cnccn1)C1CCCCC1)C(C)(C)C)C(=O)C(=O)NC1CC1` [VX-950] here?
A: Its value is “reversible, covalent, competitive, tight and slow binding”.

Q: What about the IC50 [4] of the same molecule?
A: Its IC50 is 354 nM.

Q: And the Ki [5]?
A: Its Ki is 67 nM.

Q: What about the Ki [6] of the same molecule?
A: Its Ki is 40 nM.

Q: What about the Ki [7] of the same molecule?
A: Its Ki is 650 nM.

Q: What about the Ki [8] of the same molecule?
A: Its Ki is 32 nM.

Q: And the Ki [9]?
A: The Ki was 270 nM.

Q: What about the Ki [10] of the same molecule?
A: Its Ki is 440 nM.

Q: And the Ki ([11]; read-out: Ki)?
A: Its Ki is 8 nM.

Q: What about the Ki ([11]; read-out: steady state binding constant (ki*)) of the same molecule?
A: Its Ki is 3 nM.

Q: What about the Ki [12] of the same molecule?
A: The Ki was 37 nM.

Q: What about the Ki [13] of the same molecule?
A: Its Ki is 460 nM.

Q: Which Km [14] does the source give for “HCV NS3 protease genotype 1a (Hepatitis C virus (isolate H77))” here?
A: The Km was 25 µM.

Q: And the kcat/Km [14]?
A: Its kcat/Km is 30000 M⁻¹ s⁻¹.

Q: With HCV NS3 protease, genotype 1a (enzyme) as the molecule, how does the kcat/Km [15] read?
A: The kcat/Km was 170000 M⁻¹ s⁻¹.

Q: And the kcat/Km [16]?
A: Its kcat/Km is 30000 M⁻¹ s⁻¹.

Q: Which results are given for “HCV NS3 serine protease domain, genotype 2a consensus sequence (enzyme)”?
A: kcat/Km [15]: 65000 M⁻¹ s⁻¹; kcat/Km [16]: 31000 M⁻¹ s⁻¹

Q: For “HCV NS3 serine protease domain, genotype 3a consensus sequence (enzyme)”, which kcat/Km [15] is on record?
A: The kcat/Km was 22000 M⁻¹ s⁻¹.

Q: And the kcat/Km [16]?
A: Its kcat/Km is 5200 M⁻¹ s⁻¹.
